Data published in patent publication US6440999B1, “Intimal thickening inhibitory agent” (Chugai Seiyaku Kabushiki Kaisha, priority 1995, dated 2002).

Test system: A7r5 cells derived from the aorta of a rat
Test: Inhibition of serum-stimulated proliferation of vascular smooth muscle cells, BrdU uptake (EIA)
Format: cell-based
Conditions: for Absorbance (difference between 405 nm and 492 nm), BrdU uptake: n = 3, mean ± SD
Protocol: In order to assess the inhibitory effect of a compound of the present invention on serum-stimulated pro-liferation of vascular smooth muscle cells in vitro, the compound obtained in Example 36 was tested using A7r5 cells derived from the aorta of a rat (ATCC-CRL-1444).
Using DMEM medium containing 10% FBS, the cells were placed on 96-well microtiter plates with 5×10^3 cells/0.2 ml/well and then incubated. The medium was exchanged for 2% FBS-containing DMEM medium on the third day and then for 0.2% FBS-containing DMEM medium on the fourth day from the start of the incubation. After 48-hour incubation in the 0.2% FBS-containing DMEM medium, the medium was removed, 0.1 ml of DMEM medium and the test compound were added, and the cells were stimulated with serum (2% FBS) to proliferate. The test compound was added to the wells in the form of a solution or suspension in ethanol in an amount of 0.5 μl/well to final compound concentrations indicated in Table 1 below and the resultant ethanol concentration of 0.5% in each well. BrdU was pulsed to the wells from the 16th to 38th hours or from the 38th to 64th hours after the stimulation to a final concentration of 10 μM, and the uptake of BrdU into DNA was evaluated as an indication of cell proliferation. The BrdU uptake was measured by means of an EIA kit containing an anti-BrdU antibody (5-Bromo-2′-deoxy-uridine Labeling and Detection Kit III, available from Bohringer Mannheim Biochemica).

Compound: CCCCCC1(CCCCC)Cc2c(cc(C(C)(C)C)c(O)c2C(C)(C)C)O1 [Example 36, 4,6-Di-t-butyl-2,2-di-n-pentyl-5-hydroxy-2,3-dihydrobenzofuran]
- Absorbance (difference between 405 nm and 492 nm), BrdU uptake (10 μM, BrdU pulse 16-38 hrs. after 2% FBS stimulation, control 0.433 ± 0.008): 0.397 ± 0.054
- Absorbance (difference between 405 nm and 492 nm), BrdU uptake (10 μM, BrdU pulse 38-64 hrs. after 2% FBS stimulation, control 0.436 ± 0.060): 0.195 ± 0.017
- Absorbance (difference between 405 nm and 492 nm), BrdU uptake (30 μM, BrdU pulse 16-38 hrs. after 2% FBS stimulation, control 0.433 ± 0.008): 0.362 ± 0.026
- Absorbance (difference between 405 nm and 492 nm), BrdU uptake (30 μM, BrdU pulse 38-64 hrs. after 2% FBS stimulation, control 0.436 ± 0.060): 0.085 ± 0.006
- Absorbance (difference between 405 nm and 492 nm), BrdU uptake (100 μM, BrdU pulse 16-38 hrs. after 2% FBS stimulation, control 0.433 ± 0.008): 0.290 ± 0.031
- Absorbance (difference between 405 nm and 492 nm), BrdU uptake (100 μM, BrdU pulse 38-64 hrs. after 2% FBS stimulation, control 0.436 ± 0.060): 0.049 ± 0.006
- Inhibition of serum-stimulated proliferation of vascular smooth muscle cells (in words) (BrdU uptake, 10-100 μM): inhibits the serum-stimulated proliferation of vascular smooth muscle cells dose-dependently
